Test results from patent US20100173834A1, “CYCLIC PEPTIDE MELANOCORTIN RECEPTOR LIGANDS” (priority 2007, published 2010).
Where a SMILES comes first, the peptide text is derived from it. Bridges are numbered along the chain shown (N, C = ends). [ ]: non-standard residue; d: D form.

Experiments:
[1] = target: T1, hMC3-R (Homo sapiens, UniProt P41968); test: Cyclic AMP bioassay, hMC3-R; format: cell-based
T1 construct: expressed in transfected cells; host or cells: CHO-K1
Protocol: (§4) Intracellular cyclic AMP (cAMP) levels were determined by an electrochemiluminescence (ECL) assay (Meso Scale Discovery, Gaithersburg, Md.) (referred to hereinafter as “MSD”). […] Transgenic CHO-K1 cells stably expressing hMC receptor subtypes 1, 3, 4 or 5 were dispensed at a density of approximately 7,000 cells/well in 384-well Multi-Array plates (MSD) containing integrated carbon electrodes and coated with anti-cAMP antibody. Increasing concentrations of the test compounds were added and the cells were incubated for approximately 40 minutes at approximately 37° C. […] At the end of the second incubation period read buffer (Tris-buffered solution containing an ECL co-reactant and Triton X-100 at ph 7.8) was added and the cAMP levels in the cell lysates were immediately determined by ECL detection with a Sector Imager 6000 reader® (MSD). Data were analyzed using a computer-assisted non-linear regression analysis (XL fit; IDBS) and reported as either an EC50 value or a Kb value.
(§5) The Kb value reflects the potency of an antagonist and is determined by Schild analysis. In brief, concentration-response curves of an agonist are carried out in the presence of increasing concentrations of an antagonist. […] It is calculated by extrapolating the line on a Schild plot to zero on the y-axis.

[2] = target: T2, hMC4-R (Homo sapiens, UniProt P32245); test: Radioligand binding assay, hMC4-R
T2 construct: expressed in transfected cells; host or cells: CHO-K1
T2 sequence (P32245 whole entry): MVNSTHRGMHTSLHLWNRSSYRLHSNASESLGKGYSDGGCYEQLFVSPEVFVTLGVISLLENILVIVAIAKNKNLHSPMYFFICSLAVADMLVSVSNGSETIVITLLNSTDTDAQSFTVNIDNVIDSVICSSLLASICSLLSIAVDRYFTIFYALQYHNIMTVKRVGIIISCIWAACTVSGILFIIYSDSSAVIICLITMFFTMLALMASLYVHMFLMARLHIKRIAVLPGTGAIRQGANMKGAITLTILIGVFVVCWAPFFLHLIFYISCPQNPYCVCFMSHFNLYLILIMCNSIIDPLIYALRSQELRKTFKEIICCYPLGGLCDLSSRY
Protocol: (§1) The pellets were resuspended in the same buffer and centrifuged at 50,000 g for 10 minutes at approximately 4° C. The washed pellets containing the cellular membranes were stored at approximately −80° C.
(§2) Filters were washed three times with 50 mM Tris-HCl at pH 7.4 at a temperature of approximately 0-4° C. and then assayed for radioactivity using a Packard Topcount® scintillation counter (GMI, Inc., Ramsey, Minn.).

[3] = target: T3, hMC1-R (Homo sapiens, UniProt Q01726); test: Radioligand binding assay, hMC1-R; set-up: expressed in transfected cells; host or cells: CHO-K1
T3 sequence (Q01726 whole entry): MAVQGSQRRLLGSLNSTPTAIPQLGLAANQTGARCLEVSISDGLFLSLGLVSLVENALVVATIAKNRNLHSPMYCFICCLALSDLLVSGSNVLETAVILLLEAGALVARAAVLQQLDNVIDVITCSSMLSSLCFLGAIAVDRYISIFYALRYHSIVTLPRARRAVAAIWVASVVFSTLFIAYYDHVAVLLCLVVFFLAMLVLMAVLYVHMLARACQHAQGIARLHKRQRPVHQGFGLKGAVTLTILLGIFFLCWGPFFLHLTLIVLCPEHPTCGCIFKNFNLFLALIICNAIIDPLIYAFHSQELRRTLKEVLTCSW
Protocol: (§3) The CHO-K1 cells expressing the desired hMC-R receptor type were sonicated (Branson, Danbury, Conn.) (etting 7, approximately 30 sec) in ice-cold 50 mM Tris-HCl at pH 7.4 and then centrifuged at 39,000 g for 10 minutes at approximately 4° C. The pellets were resuspended in the same buffer and centrifuged at 50,000 g for 10 minutes at approximately 4° C. The washed pellets containing the cellular membranes were stored at approximately −80° C.
as §2

[4] = target: T2, hMC4-R; test: Cyclic AMP bioassay, hMC4-R; format: cell-based
Protocol: as §4, §5

[5] = target: T4, hMC5-R (Homo sapiens, UniProt P33032); test: Cyclic AMP bioassay, hMC5-R; format: cell-based
T4 construct: expressed in transfected cells; host or cells: CHO-K1
T4 sequence (P33032 whole entry): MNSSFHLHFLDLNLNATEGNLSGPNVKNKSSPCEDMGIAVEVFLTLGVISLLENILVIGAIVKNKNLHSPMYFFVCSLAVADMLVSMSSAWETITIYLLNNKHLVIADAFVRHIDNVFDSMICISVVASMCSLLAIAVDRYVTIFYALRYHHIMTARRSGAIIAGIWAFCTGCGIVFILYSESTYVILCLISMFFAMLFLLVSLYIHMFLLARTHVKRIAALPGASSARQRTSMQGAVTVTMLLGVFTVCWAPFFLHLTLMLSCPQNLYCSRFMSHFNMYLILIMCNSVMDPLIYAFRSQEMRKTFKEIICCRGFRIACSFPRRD
Protocol: as §4, §5

[6] = target: T1, hMC3-R; test: Radioligand binding assay, hMC3-R
Protocol: as §1, §2

[7] = target: T4, hMC5-R; test: Radioligand binding assay, hMC5-R
Protocol: as §3, §2

[8] = target: T3, hMC1-R; test: Cyclic AMP bioassay, hMC1-R
Protocol: as §4, §5

[9] = target: human melanocortin 1 receptor (human) (UniProt Q01726); test: cell-based or functional assay
Chain of human melanocortin 1 receptor (human) (Q01726 whole entry): as the sequence (Q01726 whole entry) above

[10] = target: human melanocortin 4 receptor (human) (UniProt P32245); test: cell-based or functional assay
Chain of human melanocortin 4 receptor (human) (P32245 whole entry): as the sequence (P32245 whole entry) above

[11] = target: human melanocortin 3 receptor (human) (UniProt P41968); test: cell-based or functional assay
Chain of human melanocortin 3 receptor (human) (P41968 whole entry): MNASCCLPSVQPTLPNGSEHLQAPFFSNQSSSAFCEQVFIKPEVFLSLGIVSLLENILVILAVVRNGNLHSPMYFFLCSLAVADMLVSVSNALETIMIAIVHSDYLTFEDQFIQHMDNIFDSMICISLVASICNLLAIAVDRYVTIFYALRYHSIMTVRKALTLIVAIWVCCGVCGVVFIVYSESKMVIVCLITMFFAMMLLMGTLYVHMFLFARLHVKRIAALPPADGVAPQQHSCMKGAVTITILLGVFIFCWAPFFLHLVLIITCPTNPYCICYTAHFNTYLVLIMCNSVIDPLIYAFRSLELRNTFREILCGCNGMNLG

[12] = target: human melanocortin 5 receptor (human) (UniProt P33032); test: cell-based or functional assay
Chain of human melanocortin 5 receptor (human) (P33032 whole entry): as the sequence (P33032 whole entry) above

[13] = target: human melanocortin 3 receptor (human) (UniProt P41968); test: competitive displacement of [125I]-NDP-alpha-MSH, membranes of CHO-K1 cells expressing hMC3-R

T1 sequence (P41968 whole entry): as the sequence (P41968 whole entry) above

EC50, cAMP bioassay (ECL) in CHO-K1 cells expressing hMC1-R [9] | EC50, cAMP bioassay (ECL) in CHO-K1 cells expressing hMC4-R [10] | EC50, cAMP bioassay (ECL) in CHO-K1 cells expressing hMC3-R [11] | EC50, cAMP bioassay (ECL) in CHO-K1 cells expressing hMC5-R [12] | Ki [13] | Molecule | EC50 [1] | Ki [2] | Ki [3] | EC50 [4] | EC50 [5] | Ki [6] | Ki [7] | EC50 [8]
– | – | – | – | – | CC(=O)N[C@@H](Cc1cccc2ccccc12)C(=O)N[C@@H](CCCNC(=N)N)C(=O)N[C@H]1CSSC[C@@H](C(N)=O)NC(=O)[C@H](Cc2c[nH]c3ccccc23)NC(=O)[C@H](CCCNC(=N)N)NC(=O)[C@@H](Cc2ccccc2)NC(=O)[C@H](Cc2c[nH]cn2)NC(=O)[C@@H](C)NC1=O [Ac-1-Nal-Arg-c(Cys-D-Ala-His-D-Phe-Arg-Trp-Cys)-NH2] | 4.21 nM | 1.53 nM | 6.27 nM | 0.363 nM | 1320 nM | 36.4 nM | 888 nM | 8.67 nM
– | – | – | – | – | CC(=O)N[C@@H](Cc1ccc2ccccc2c1)C(=O)N[C@@H](CCCNC(=N)N)C(=O)N[C@H]1CSSC[C@@H](C(N)=O)NC(=O)[C@H](Cc2c[nH]c3ccccc23)NC(=O)[C@H](CCCNC(=N)N)NC(=O)[C@@H](Cc2ccccc2)NC(=O)[C@H](Cc2c[nH]cn2)NC(=O)[C@@H](C)NC1=O [Ac-2-Nal-Arg-c(Cys-D-Ala-His-D-Phe-Arg-Trp-Cys)-NH2] | 6.11 nM | 2.02 nM | 6.09 nM | 0.275 nM | 1730 nM | 34.9 nM | 864 nM | 9.66 nM
– | – | – | – | – | CC(=O)N[C@@H](Cc1c(F)c(F)c(F)c(F)c1F)C(=O)N[C@@H](CCCNC(=N)N)C(=O)N[C@H]1CSSC[C@@H](C(N)=O)NC(=O)[C@H](Cc2c[nH]c3ccccc23)NC(=O)[C@H](CCCNC(=N)N)NC(=O)[C@@H](Cc2ccccc2)NC(=O)[C@H](Cc2c[nH]cn2)NC(=O)[C@@H](C)NC1=O [Ac-Pff-Arg-c(Cys-D-Ala-His-D-Phe-Arg-Trp-Cys)-NH2] | – | 1.95 nM | 0.323 nM | – | – | 1.33 nM | 786 nM | –
– | – | – | – | – | CC(=O)N[C@@H](Cc1ccccc1)C(=O)N[C@@H](CCCNC(=N)N)C(=O)N[C@H]1CSSC[C@@H](C(N)=O)NC(=O)[C@H](Cc2c[nH]c3ccccc23)NC(=O)[C@H](CCCNC(=N)N)NC(=O)[C@@H](Cc2ccccc2)NC(=O)[C@H](Cc2c[nH]cn2)NC(=O)[C@@H](C)NC1=O [Ac-Phe-Arg-c(Cys-D-Ala-His-D-Phe-Arg-Trp-Cys)-NH2] (Ac-FRC[dA]H[dF]RWC-NH2; disulfide 3-9) | – | 2.34 nM | 1.48 nM | – | – | 14.8 nM | 491 nM | –
– | – | – | – | – | CC(=O)N[C@@H](Cc1c[nH]c2ccccc12)C(=O)N[C@@H](CCCNC(=N)N)C(=O)N[C@H]1CSSC[C@@H](C(N)=O)NC(=O)[C@H](Cc2c[nH]c3ccccc23)NC(=O)[C@H](CCCNC(=N)N)NC(=O)[C@@H](Cc2ccccc2)NC(=O)[C@H](Cc2c[nH]cn2)NC(=O)[C@@H](C)NC1=O [Ac-Trp-Arg-c(Cys-D-Ala-His-D-Phe-Arg-Trp-Cys)-NH2] (Ac-WRC[dA]H[dF]RWC-NH2; disulfide 3-9) | 3.95 nM | 2.25 nM | 4.7 nM | 0.219 nM | 2580 nM | 42 nM | 1470 nM | 5.78 nM
– | – | – | – | – | CC(=O)N[C@@H](Cc1ccc(O)cc1)C(=O)N[C@@H](CCCNC(=N)N)C(=O)N[C@H]1CSSC[C@@H](C(N)=O)NC(=O)[C@H](Cc2c[nH]c3ccccc23)NC(=O)[C@H](CCCNC(=N)N)NC(=O)[C@@H](Cc2ccccc2)NC(=O)[C@H](Cc2c[nH]cn2)NC(=O)[C@@H](C)NC1=O [Ac-Tyr-Arg-c(Cys-D-Ala-His-D-Phe-Arg-Trp-Cys)-NH2] | – | – | – | – | 1540 nM | – | 714 nM | –
8.67 nM | 0.363 nM | 4.21 nM | 1320 nM | – | Ac-1-Nal-Arg-c(Cys-D-Ala-His-D-Phe-Arg-Trp-Cys)-NH2 (peptide) | – | – | – | – | – | – | – | –
9.66 nM | 0.275 nM | 6.11 nM | 1730 nM | – | Ac-2-Nal-Arg-c(Cys-D-Ala-His-D-Phe-Arg-Trp-Cys)-NH2 (peptide) | – | – | – | – | – | – | – | –
5.78 nM | 0.219 nM | 3.95 nM | 2580 nM | – | Ac-Trp-Arg-c(Cys-D-Ala-His-D-Phe-Arg-Trp-Cys)-NH2 (peptide) | – | – | – | – | – | – | – | –
– | – | 2.39 nM | 1540 nM | 21.2 nM | Ac-Tyr-Arg-c(Cys-D-Ala-His-D-Phe-Arg-Trp-Cys)-NH2 (peptide) | – | – | – | – | – | – | – | –
